Assay results: US20060228347A1, “Antitumor agent and dnase” (Susumu SUNAGA and SUNNYVALE COMPANY, priority 2005, published 2006)
Values after ≈ are worked out from the molar mass of the structure shown.

Key:
MKN-28 cell [1] = assay: Appearance of mitotic (round) cells after colcemid treatment; assay type: cell-based, human
Method: (§1) A synthetic colchicine, colcemid (J. Radiat. Res., 14, 258-270, 1971) was used to prepare the M-phase cell. The optimum conditions for obtaining the living M-phase cell, and the conditions for evaluation the activity of inhibiting a cell proliferation by the MTT method were examined.
(§2) More particularly, cells were cultivated in a 25-cm^2 culture flask (Falcon, 3014, 50 mL) for 3 days. After the mono-layered cells were washed, a growth medium supplemented with 0.025 μg/mL of colcemid (Nakarai, 09356-74) was added, and incubated at 37° C. for 6 hours. After the cells were washed gently, the culture flask was gently shaken to collect cells removed from the bottom of the flask. The collected cells were washed with the medium (GM) by centrifugation to remove colcemid. The washed cells were suspended in the growth medium and incubated.
(§3) The incubated cells were observed under a microscope at intervals of an hour; an appearance of mitotic cells is shown in Table 19. The appearance of mitotic cells was judged by an appearance of round cells as an index. Although almost cultured cells adhere to the glass surface and are thinly spread, mitotic cells become round and tend to leave the glass surface. Therefore, an appearance of round cells which tend to leave the monolayer was used as the index.
(§4) In Table 19, “−” means that the round cells appeared at a percentage of 0% with respect to the whole cells, “±” means that the round cells appeared at a percentage less than 5%, and “+” means that the round cells appeared at a percentage from 5% to less than 30%. The numbers in parentheses of “Round cells/flask” are numbers of positive cells strained by trypan blue.

MRC-5 cell [2] = assay: as above; assay type: cell-based, human
Method: as §1, §2, §3, §4

HeLa cell = assay: MTT method, cell proliferation inhibition by cell fractions; assay type: cell-based; conditions: Homo sapiens
Method: (§5) More particularly, cells for evaluation, i.e., a cancer cell line (for example, an MKN-28 cell or a HeLa cell) and a normal cell (for example, an MRC-5 cell or an HEF cell) are prepared as cell suspensions. An appropriately diluted series (for example, 1/2, 1/4, 1/8, 1/16, and 1/32) of a DNase solution are poured into each well of a microplate. After each cell suspension is further added into each well, the cells are cultivated for a predetermined period (for example, 4 days). After the cultivation, an MTT [3-(4,5-dimethylthiazol-2-yl)-2,5-diphenyltetrazolium bromide; Sigma chemical Co.] solution is added into each well. After an incubation for a predetermined period (for example, at 37° C. for 4 hours), a culture supernatant is removed from each well, and then an MTT formazan elution liquid [acidified isopropanol containing 10% (V/V) Triton X-100] is added into each well. […] The IC50 value is indicated as a dilution of a test liquid or a concentration (for example, μg/mL) of a test drug which can inhibit a proliferation of a control cell (without an antitumor agent) to 50%. When the dilution is high, or when the drug concentration is low, it can be judged that the drug (substance) tested has a high activity.
(§6) As cells for evaluation, the MKN-28 cell and the HeLa cell were used as cancer cell lines, and the MRC-5 cell was used as a normal cell. After each cell line was cultured for 3 days, cells were treated with trypsin, and dispersed cells were washed with PBS by centrifugation. Washed cells were suspended in a Dulbecco's modified Eagle's MEM medium containing 8% fetal calf serum (hereinafter referred to as GM), and counted with a hemocytometer. Each cell suspension was adjusted with the GM to cell densities of 5000 cells/50 μL and 2500 cells/50 μL (cancer cell lines) or 10000 cells/50 μL and 5000 cells/50 μL (MRC-5 cell).
(§7) To each well in a 96-well flat-bottomed plate, diluted series (undiluted, 1/2, 1/4, 1/8, 1/16, and 1/32; 50 μL/well) of each centrifugal supernatant or centrifugal pellet prepared in Example 1 were added. Further, each cell suspension was added to each well, and the plate was incubated at 37° C. in a CO2 incubator. After 3 or 4 days from the beginning of the incubation, 20 μL/well of an MTT solution was added to each well, and the plate was incubated at 37° C. for 3 hours. The culture supernatant was removed from each well, and 100 μL of an MTT formazan elution liquid was added to each well.
(§8) As a control, PBS was used instead of the diluted series of each centrifugal supernatant or centrifugal pellet. For comparison, 5-fold-diluted series (100 μg/mL, 20 μg/mL, 4 μg/mL, 0.8 μg/mL, 0.16 μg/mL, and 0.032 μg/mL) of 5-fluorouracil (5-FU) were used instead of the diluted series of each centrifugal supernatant or centrifugal pellet.
(§9) The IC50 values when the cancer cell line MKN-28 was used as the cell for evaluation and the centrifugal supernatant and the centrifugal pellet derived from the MKN-28 cell were used as the cell fraction are shown in Table 6. Each IC50 value shown in Table 6 (or Tables 7 to 10 described below) is an average of plural (two to four) values. Each IC50 value is shown as a dilution (i.e., relative value) of a test liquid [or a concentration of a test drug (μg/mL for 5-FU)] which can inhibit a proliferation of a control cell (without an antitumor agent) to 50%.

MKN-28 cell [3] = assay: as above; assay type: cell-based; conditions: Homo sapiens
Method: as §5, §6, §7, §8, §9

MRC-5 cell [4] = assay: as above; assay type: cell-based; conditions: Homo sapiens
Method: as §5, §6, §7, §8, §9

In the case of `CN[C@H]1CCc2cc(OC)c(OC)c(OC)c2-c2ccc(OC)c(=O)cc21` [colcemid], the Round cells/flask (MKN-28 cell [1]; MKN-28) is reported as 93000, the “yield of colcemid-treated cells (number of cells after the treatment/number of cells before the treatment)” value (MKN-28 cell [1]; MKN-28) is reported as 1.4% and the “Appearance of round cells” value (MKN-28 cell [1]; MKN-28, 1 hr, 0.025 μg/mL colcemid) is reported as “− (the round cells appeared at a percentage of 0% with respect to the whole cells)”. For the same compound, the “Appearance of round cells” value (MKN-28 cell [1]; MKN-28, 2 hr) was “± (the round cells appeared at a percentage less than 5%)”, the “Appearance of round cells” value (MKN-28 cell [1]; MKN-28, 3 hr) was “+ (the round cells appeared at a percentage from 5% to less than 30%)” and the “Appearance of round cells” value (MKN-28 cell [1]; MKN-28, 4 hr) was “+ (the round cells appeared at a percentage from 5% to less than 30%)”. For the same compound, the “Appearance of round cells” value (MKN-28 cell [1]; MKN-28, 5 hr) was “+ (the round cells appeared at a percentage from 5% to less than 30%)”, the “Round cells/flask: positive cells strained by trypan blue” value (MKN-28 cell [1]; MKN-28, number in parentheses) was 0 and the Round cells/flask (MRC-5 cell [2]; MRC-5) was 153000. The “yield of colcemid-treated cells (number of cells after the treatment/number of cells before the treatment)” value (MRC-5 cell [2]; MRC-5) was 29%, the “Appearance of round cells” value (MRC-5 cell [2]; MRC-5, 1 hr, 0.025 μg/mL colcemid) was “− (the round cells appeared at a percentage of 0% with respect to the whole cells)” and the “Appearance of round cells” value (MRC-5 cell [2]; MRC-5, 2 hr) was “± (the round cells appeared at a percentage less than 5%)”. For the same compound, the “Appearance of round cells” value (MRC-5 cell [2]; MRC-5, 3 hr) was “+ (the round cells appeared at a percentage from 5% to less than 30%)”, the “Appearance of round cells” value (MRC-5 cell [2]; MRC-5, 4 hr) was “+ (the round cells appeared at a percentage from 5% to less than 30%)” and the “Appearance of round cells” value (MRC-5 cell [2]; MRC-5, 5 hr) was “+ (the round cells appeared at a percentage from 5% to less than 30%)”. The “Round cells/flask: positive cells strained by trypan blue” value (MRC-5 cell [2]; MRC-5, number in parentheses) was 0.
For `O=c1[nH]cc(F)c(=O)[nH]1` [5-FU, 5-fluorouracil], the IC50 (HeLa cell; 72 h, Table 7, HeLa (3 days), 2500 cells/well) was 5 µg/mL (≈ 38.4 µM), the IC50 (HeLa cell; 72 h, Table 7, HeLa (3 days), 5000 cells/well) was 7.3 µg/mL (≈ 56.1 µM) and the IC50 (HeLa cell; 72 h, Table 9, 3-day cultivation, 2500 cells/well) was 7 µg/mL (≈ 53.8 µM). The IC50 (HeLa cell; 72 h, Table 9, 3-day cultivation, 5000 cells/well) was 12 µg/mL (≈ 92.3 µM), the IC50 (HeLa cell; 96 h, Table 7, HeLa (4 days), 2500 cells/well) was 3.6 µg/mL (≈ 27.7 µM) and the IC50 (HeLa cell; 96 h, Table 7, HeLa (4 days), 5000 cells/well) was 3.6 µg/mL (≈ 27.7 µM). The IC50 (HeLa cell; 96 h, Table 10, 4-day cultivation, 2500 cells/well) was 6.2 µg/mL (≈ 47.7 µM), the IC50 (HeLa cell; 96 h, Table 10, 4-day cultivation, 5000 cells/well) was 13 µg/mL (≈ 99.9 µM) and the IC50 (MKN-28 cell [3]; MKN-28, 72 h, Table 6, MKN (3 days), 2500 cells/well) was 4.6 µg/mL (≈ 35.4 µM). The IC50 (MKN-28 cell [3]; MKN-28, 72 h, Table 6, MKN (3 days), 5000 cells/well) was 5.9 µg/mL (≈ 45.4 µM), the IC50 (MKN-28 cell [3]; MKN-28, 72 h, Table 9, 3-day cultivation, MKN, 2500 cells/well) was 4.6 µg/mL (≈ 35.4 µM) and the IC50 (MKN-28 cell [3]; MKN-28, 72 h, Table 9, 3-day cultivation, MKN, 5000 cells/well) was 6 µg/mL (≈ 46.1 µM). It also gave an IC50 (MKN-28 cell [3]; MKN-28, 96 h, Table 6, MKN (4 days), 2500 cells/well) of 3.7 µg/mL (≈ 28.4 µM), an IC50 (MKN-28 cell [3]; MKN-28, 96 h, Table 6, MKN (4 days), 5000 cells/well) of 14.8 µg/mL (≈ 114 µM) and an IC50 (MKN-28 cell [3]; MKN-28, 96 h, Table 10, 4-day cultivation, MKN, 2500 cells/well) of 4.7 µg/mL (≈ 36.1 µM). For the same compound, the IC50 (MKN-28 cell [3]; MKN-28, 96 h, Table 10, 4-day cultivation, MKN, 5000 cells/well) was 11.6 µg/mL (≈ 89.2 µM), the IC50 (MRC-5 cell [4]; MRC5, 72 h, Table 8, MRC (3 days), 5000 cells/well) was > 100 µg/mL and the IC50 (MRC-5 cell [4]; MRC5, 72 h, Table 8, MRC (3 days), 10000 cells/well) was > 100 µg/mL. For the same compound, the IC50 (MRC-5 cell [4]; MRC5, 72 h, Table 9, 3-day cultivation, MRC, 5000 cells/well) was > 100 µg/mL, the IC50 (MRC-5 cell [4]; MRC5, 72 h, Table 9, 3-day cultivation, MRC, 10000 cells/well) was > 100 µg/mL and the IC50 (MRC-5 cell [4]; MRC5, 96 h, Table 8, MRC (4 days), 5000 cells/well) was 92 µg/mL (≈ 707 µM). For the same compound, the IC50 (MRC-5 cell [4]; MRC5, 96 h, Table 8, MRC (4 days), 10000 cells/well) was > 100 µg/mL, the IC50 (MRC-5 cell [4]; MRC5, 96 h, Table 10, 4-day cultivation, MRC, 5000 cells/well) was 92 µg/mL (≈ 707 µM) and the IC50 (MRC-5 cell [4]; MRC5, 96 h, Table 10, 4-day cultivation, MRC, 10000 cells/well) was > 100 µg/mL.
